Results from patent US20250228832A1, “METHODS FOR TREATING DISORDERS AMELIORATED BY MUSCARINIC RECEPTOR ACTIVATION” (KARUNA THERAPEUTICS, INC., priority 2022, published 2025).
Where two headings read alike, the source gives them in different places. One block for each molecule: values may come before it.

Key:
human M3 receptor = target: T1, human M3 receptor (Homo sapiens, UniProt P20309); assay: HTRF IP-One curve shift assay, M3; format: cell-based
T1 construct: expressed in transfected cells
Protocol: (§1) HTRF IP-One assays were performed using frozen cell aliquots prepared from CHO-K1 cell lines stably expressing human M1, M3, or M5 receptors. Cells were frozen following typical cell freezing protocols. […] Dissociated cells were quenched in full media and collected by centrifugation at 290×g for 5 min. […] 1 mL aliquots of cells were dispensed into cryovial tubes and frozen in a controlled rate cryo-freezer container at −80° C. Cells were stored at −80° C. (or in liquid nitrogen if stored for at least six months) until the day of the assay.
(§2) On the day before the assay, frozen cells were rapidly thawed in a 37° C. water bath, brought up in 20 mL of full media, and collected via centrifugation at 290×g for 5 min. […] Next, […] of cells (10,000 cells/well) were dispensed into 384-well coming plates in triplicate. Cells were incubated overnight in a 37° C., 5% CO2 cell incubator.
(§3) Then, 2 μL of test compounds were added to the cells and incubated for 10 min at 37° C. in a 5% CO2 cell incubator. Next, 2 μL of diluted agonists serially diluted in assay buffer at 7× final assay concentration was added to assay plates. Finally, assay plates were incubated for two hours at 37° C. in a 5% CO2 cell incubator.
(§4) Six μL of IP-1 detection reagents (IP-One Gq HTRF kit, Cisbio Cat #62IPAPEJ) were dispensed to the cells. First, the plates were incubated for two hours at room temperature (IP-One detection reagents were made according to Cisbio protocol). Then, plates were read on an Envision plate reader following the Cisbio guidelines.
(§5) Raw data for all assays was transmitted directly from plate readers into the Beacon database for processing. All assay plates contained positive and negative control wells for data normalization and scaling. […] All control wells contained DMSO at a final assay concentration that matched the test compound wells.
(§6) Counts from the standard curve wells were used to generate a sigmoidal standard curve, which was used to transform the raw counts from each well on the plate (scaling control wells and compound wells) into a pmol/well IP1 value.

human M5 receptor = target: T2, human M5 receptor (Homo sapiens, UniProt P08912); assay: HTRF IP-One curve shift assay, M5; format: cell-based; conditions: M5
T2 construct: expressed in transfected cells
T2 sequence (P08912 1-532): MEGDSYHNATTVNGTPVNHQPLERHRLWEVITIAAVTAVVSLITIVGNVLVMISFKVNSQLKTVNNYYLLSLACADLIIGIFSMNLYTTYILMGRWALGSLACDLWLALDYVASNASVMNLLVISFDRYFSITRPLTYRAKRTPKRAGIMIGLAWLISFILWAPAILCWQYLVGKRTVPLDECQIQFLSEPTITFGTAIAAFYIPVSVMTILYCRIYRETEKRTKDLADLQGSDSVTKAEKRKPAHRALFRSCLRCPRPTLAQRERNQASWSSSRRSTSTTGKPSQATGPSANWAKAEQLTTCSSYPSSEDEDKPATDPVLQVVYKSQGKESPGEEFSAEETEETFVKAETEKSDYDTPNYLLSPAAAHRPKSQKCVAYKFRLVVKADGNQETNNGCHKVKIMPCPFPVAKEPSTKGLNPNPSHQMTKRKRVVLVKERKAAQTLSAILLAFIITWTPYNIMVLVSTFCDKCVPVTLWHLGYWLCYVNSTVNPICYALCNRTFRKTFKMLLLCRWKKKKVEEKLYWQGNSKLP
Protocol: as §1, §2, §3, §4, §5, §6

[1] = Emraclidine concentration 41.2 nM, read-out: Emax
[2] = Emraclidine concentration 123 nM, read-out: Emax
[3] = Emraclidine concentration 370 nM
[4] = Emraclidine concentration 1110 nM, read-out: Emax
[5] = Emraclidine concentration 3330 nM, read-out: Emax
[6] = MK-4710 concentration 41.2 nM, read-out: Emax
[7] = MK-4710 concentration 123 nM, read-out: Emax
[8] = MK-4710 concentration 1110 nM, read-out: Emax
[9] = MK-4710 concentration 3330 nM, read-out: Emax
[10] = Emraclidine concentration 370 nM, read-out: Emax
[11] = Emraclidine concentration […], read-out: Emax
[12] = MK-4710 concentration 370 nM, read-out: Emax
[13] = MK-4710 concentration […], read-out: Emax

T1 sequence (P20309 whole entry): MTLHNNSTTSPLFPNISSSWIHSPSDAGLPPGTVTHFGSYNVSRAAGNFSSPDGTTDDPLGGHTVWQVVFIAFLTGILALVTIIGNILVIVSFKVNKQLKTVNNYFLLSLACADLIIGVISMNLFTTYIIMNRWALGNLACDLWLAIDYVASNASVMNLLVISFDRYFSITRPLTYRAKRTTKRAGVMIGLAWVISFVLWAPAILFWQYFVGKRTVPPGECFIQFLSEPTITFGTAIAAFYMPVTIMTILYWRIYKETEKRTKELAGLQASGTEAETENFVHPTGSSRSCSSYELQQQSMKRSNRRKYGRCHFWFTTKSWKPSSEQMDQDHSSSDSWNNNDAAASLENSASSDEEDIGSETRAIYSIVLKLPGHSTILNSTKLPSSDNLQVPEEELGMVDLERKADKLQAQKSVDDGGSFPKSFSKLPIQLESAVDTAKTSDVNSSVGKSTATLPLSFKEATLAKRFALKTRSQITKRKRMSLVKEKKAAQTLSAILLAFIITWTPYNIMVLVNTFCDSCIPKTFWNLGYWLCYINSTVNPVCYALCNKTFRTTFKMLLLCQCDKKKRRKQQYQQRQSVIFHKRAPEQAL

EC50 (human M3 receptor; Emraclidine concentration 0 nM): 3.27 µM
Emax (human M3 receptor; Emraclidine concentration 0 nM): 97.9%
Emax (human M3 receptor; [1]): 96.7%
Emax (human M3 receptor; [2]): 83.8%
Emax at […] (human M3 receptor; [3]): 87.8%
Emax (human M3 receptor; [4]): 125%
Emax (human M3 receptor; [5]): 83.9%
Emax at […] (human M3 receptor; Emraclidine concentration […]): 77.3%
α (cooperativity, affinity shift) (human M3 receptor; M4 PAM Emraclidine): 1.0
β (cooperativity, efficacy shift) (human M3 receptor; M4 PAM Emraclidine): 1.1
τ (agonist pharmacology) (human M3 receptor; M4 PAM Emraclidine): 0.1
α (cooperativity, affinity shift) (human M3 receptor; M4 PAM MK-4710): 2.1
β (cooperativity, efficacy shift) (human M3 receptor; M4 PAM MK-4710): 0.6
τ (agonist pharmacology) (human M3 receptor; M4 PAM MK-4710): 0.0
EC50 (human M3 receptor; MK-4710 concentration 0 nM): 6.36 µM
Emax (human M3 receptor; MK-4710 concentration 0 nM): 118.7%
EC50 (human M3 receptor; MK-4710 concentration 41.2 nM): 7.6 µM
Emax (human M3 receptor; [6]): 151%
EC50 (human M3 receptor; MK-4710 concentration 123 nM): 4.88 µM
Emax (human M3 receptor; [7]): 137%
EC50 (human M3 receptor; MK-4710 concentration 370 nM): 9.67 µM
Emax at […] (human M3 receptor; MK-4710 concentration 370 nM): 163%
EC50 (human M3 receptor; MK-4710 concentration 1110 nM): 11.2 µM
Emax (human M3 receptor; [8]): 150%
EC50 (human M3 receptor; MK-4710 concentration 3330 nM): 4.11 µM
Emax (human M3 receptor; [9]): 93.1%
EC50 (human M3 receptor; MK-4710 concentration […]): 11.5 µM
Emax at […] (human M3 receptor; MK-4710 concentration […]): 159%
EC50 (human M5 receptor; Emraclidine concentration 0 nM): 1.37 µM
Emax (human M5 receptor; Emraclidine concentration 0 nM): 90.54%
Emax (human M5 receptor; [1]): 92.7%
Emax (human M5 receptor; [2]): 93.5%
Emax at […] (human M5 receptor; [10]): 105%
Emax (human M5 receptor; [4]): 103%
Emax (human M5 receptor; [5]): 106%
Emax at […] (human M5 receptor; [11]): 102%
α (cooperativity, affinity shift) (human M5 receptor; M4 PAM Emraclidine): 1.0
β (cooperativity, efficacy shift) (human M5 receptor; M4 PAM Emraclidine): 0.5
τ (agonist pharmacology) (human M5 receptor; M4 PAM Emraclidine): 0.1
α (cooperativity, affinity shift) (human M5 receptor; M4 PAM MK-4710): 1.0
β (cooperativity, efficacy shift) (human M5 receptor; M4 PAM MK-4710): 1.4
τ (agonist pharmacology) (human M5 receptor; M4 PAM MK-4710): 0.1
EC50 (human M5 receptor; MK-4710 concentration 0 nM): 3.72 µM
Emax (human M5 receptor; MK-4710 concentration 0 nM): 70.31%
Emax (human M5 receptor; [6]): 95.2%
Emax (human M5 receptor; [7]): 88.2%
Emax at […] (human M5 receptor; [12]): 91.1%
Emax (human M5 receptor; [8]): 78.3%
Emax (human M5 receptor; [9]): 91.2%
Emax at […] (human M5 receptor; [13]): 97.3%
Compound: CC1OC2(CS1)CN1CCC2CC1 (stereo not shown) [cevimeline, Cevimeline, reference compound]

EC50 (human M3 receptor; Emraclidine concentration 0 nM): 0.224 µM
Emax (human M3 receptor; Emraclidine concentration 0 nM): 63.5%
Emax (human M3 receptor; [1]): 63.9%
Emax (human M3 receptor; [2]): 68.2%
Emax at […] (human M3 receptor; [3]): 73.4%
Emax (human M3 receptor; [4]): 64.6%
Emax (human M3 receptor; [5]): 73%
Emax at […] (human M3 receptor; Emraclidine concentration […]): 71.1%
α (cooperativity, affinity shift) (human M3 receptor; M4 PAM Emraclidine): 7.6
β (cooperativity, efficacy shift) (human M3 receptor; M4 PAM Emraclidine): 1.1
τ (agonist pharmacology) (human M3 receptor; M4 PAM Emraclidine): 0.0
α (cooperativity, affinity shift) (human M3 receptor; M4 PAM MK-4710): 6.2
β (cooperativity, efficacy shift) (human M3 receptor; M4 PAM MK-4710): 1.6
τ (agonist pharmacology) (human M3 receptor; M4 PAM MK-4710): 0.0
EC50 (human M3 receptor; MK-4710 concentration 0 nM): 0.045 µM
Emax (human M3 receptor; MK-4710 concentration 0 nM): 80.8%
Emax (human M3 receptor; [6]): 75.4%
Emax (human M3 receptor; [7]): 66.6%
Emax at […] (human M3 receptor; MK-4710 concentration 370 nM): 76.7%
Emax (human M3 receptor; [8]): 74.3%
Emax (human M3 receptor; [9]): 86%
Emax at […] (human M3 receptor; MK-4710 concentration […]): 72.7%
EC50 (human M5 receptor; Emraclidine concentration 0 nM): 0.403 µM
Emax (human M5 receptor; Emraclidine concentration 0 nM): 63.6%
Emax (human M5 receptor; [1]): 71.8%
Emax (human M5 receptor; [2]): 68.8%
Emax at […] (human M5 receptor; [10]): 67.4%
Emax (human M5 receptor; [4]): 66.9%
Emax (human M5 receptor; [5]): 71.9%
Emax at […] (human M5 receptor; [11]): 67.1%
α (cooperativity, affinity shift) (human M5 receptor; M4 PAM Emraclidine): 10.6
β (cooperativity, efficacy shift) (human M5 receptor; M4 PAM Emraclidine): 1.1
τ (agonist pharmacology) (human M5 receptor; M4 PAM Emraclidine): 0.0
α (cooperativity, affinity shift) (human M5 receptor; M4 PAM MK-4710): 1.4
β (cooperativity, efficacy shift) (human M5 receptor; M4 PAM MK-4710): 0.8
τ (agonist pharmacology) (human M5 receptor; M4 PAM MK-4710): 0.1
EC50 (human M5 receptor; MK-4710 concentration 0 nM): 0.245 µM
Emax (human M5 receptor; MK-4710 concentration 0 nM): 81.82%
Emax (human M5 receptor; [6]): 78.3%
Emax (human M5 receptor; [7]): 78.8%
Emax at […] (human M5 receptor; [12]): 76.6%
Emax (human M5 receptor; [8]): 69.7%
Emax (human M5 receptor; [9]): 77.3%
Emax at […] (human M5 receptor; [13]): 69.7%
Compound: CCCCCCCOc1nsnc1C1=CCCCN1C [KTX-593, 3-(heptyloxy)-4-(1-methyl-1,4,5,6-tetrahydropyridin-2-yl)-1,2,5-thiadiazole]
